From patent US11324706B2, “Composition for inhibiting growth of breast cancer stem cells containing phenylacetaldehyde” (JEJU NATIONAL UNIVERSITY INDUSTRY-ACADEMIC COOPERATION …, priority 2016, dated 2022)

Tests used:
Assay type in all cases: cell-based, human
[1] = tested on: ALDH-positive cell populations of MDA-MB-231 cells; assay: ALDEFLUOR assay; settings: MDA-MB-231, PAA 0.1 mM
Procedure: MDA-MB-231 cells were treated with PAA (0.1 mM) or DMSO, and then subjected to ALDEFLUOR assay and FACS analysis. A top panel represents, as a negative control group, an ALDH-positive cell treated with an ALDH inhibitor, DEAB, and a bottom panel represents an ALDH-positive cell not treated with DEAB. An ALDH-positive population was represented by a box;
An ALDEFLUOR assay system provides a novel approach regarding identification, evaluation and separation of CSCs based on activity of aldehyde dehydrogenase (ALDH). BODIPY-aminoacetaldehyde was added as an active reagent to breast cancer cells and converted into fluorescent BODIPY-aminoacetate by aldehyde dehydrogenase (ALDH). An ALDH inhibitor, i.e., diethylaminobenzaldehyde (DEAB), was used as a negative control group. MCF-7 cells were treated with 200 μM of PAA for 24 hours, and the rate of ALDH-positive cells was analyzed by ALDEFLUOR assay. ALDH positive and negative cells were classified by flow cytometry (Accuri C6, BD, San Diego, Calif., USA).

secreted IL-6 = assay: Western blot of secreted IL-6 in mammosphere culture solution; settings: culture solution of mammospheres
Source text: PAA reduces extracellular IL-6 protein levels in mammosphere culture;
The secreted IL-6 is known to play a key role in the formation of mammospheres (Sansone P, Storci G, Tavolari S, Guarnieri T, Giovannini C, Taffurelli M, Ceccarelli C, Santini D, Paterini P, Marcu K B, Chieco P and Bonafe M. IL-6 triggers malignant features in mammospheres from human ductal breast carcinoma and normal mammary gland. J Clin Invest. 2007; 117(12):3988-4002). Accordingly, in order to investigate the amount of produced secreted IL-6, western blot analysis was conducted in a culture solution of mammospheres using IL-6 antibodies. […] The internal control group was used to count mammospheres before and after treatment with PAA.

MDA-MB-231 cells = assay: Clonogenicity assay (colony formation); settings: MDA-MB-231, 7 days
Procedure: The dissociated 1,000 MDA-MB-231 cells were seeded on a 6-well plate and treated with marked concentrations of PAA and DMSO for 7 days. A representative image of colonies was recorded. Shown data is represented as a mean±SD in three independent tests. * means P<0.05, as compared to DMSO-treated control group;
MDA-MB-231 cells were seeded at a low density on a 6-well plate and treated with different concentrations of PAA in DMEM. After 24 hours, the medium was replaced with fresh medium and incubated for cell growth for 7 days. Grown colonies were counted.

ROSs in MDA-MB-231 cells = assay: Measurement of ROS activity (ROS-Glo H2O2 assay)
Procedure: ROSs in cells were analyzed using a ROS-Glo™ H2O2 assay kit. PAA induced ROS production of breast cancers;
Cancer cells were cultured on a 96-well white plate and cultured together with PAA (0.5 mM) or DMSO for 24 hours. In accordance with the manufacturer's instructions, ROS was measured using an ROS-Glo™ H2O2 detection solution (Promega, Wis., USA). 100 μl of the ROS-Glo™ H2O2 detection solution was added to a 96-well white plate containing breast cancer cells, cultured at room temperature for 20 minutes, and relative luminance was recorded using a plate reader, luminometer, GloMax® Explorer (Promega, Wis., USA).

[2] = tested on: MCF-7 cell-derived mammospheres; assay: Mammosphere formation, MCF-7-derived
Procedure: FIGS. 4A, 4B and 4C show effects of PAA on formation of MCF-7 cell-derived mammospheres. Primary mammospheres were cultured together with PAA (0.2 and 0.5 mM) or DMSO;
Human breast cancer cells, i.e., MCF-7 and MDA-MB-231, were commercially obtained from American Type Culture Collection (ATCC; Manassas, Va., USA). MCF-7 and MDA-MB-231 cells were cultured in Dulbecco's modified essential medium (DMEM; Hyclone, Logan, Utah, USA) containing 10% fetal bovine serum (FBS; Hyclone), 100 U/mL of penicillin, and 100 μg/mL of streptomycin (Hyclone). The MCF-7 and MDA-MB-231 cells were maintained at 37° C. in a 5% CO2-containing humidified incubator. The cells were plated at a density of 1×10^6 on a 10 cm petri dish. In order to establish primary mammospheres, single cell-suspended MCF-7 and MDA-MB-231 cells were seeded at a density (cells/well) of 3.5×10^4 to 4×10^4 and 0.5×10^4 to 1×10^4, respectively, on ultra-low attachment 6-well plates containing 2 ml complete MammoCult™ medium (StemCell Technologies, Vancouver, BC, Canada). The complete MammoCult™ medium was supplemented with 4 μg/mL of heparin, 0.48 μg/mL of hydrocortisone, 100 U/mL of penicillin and 100 μg/mL of streptomycin. The cells were cultured for 7 days in a 37° C. 5% CO2 incubator.
At 7 days of culture, the cell culture plate was disposed on a scanner (Epson Perfection V700 PHOTO, Epson Korea, Co, Seoul, Korea) to obtain an 8 bit gray scale image of mammospheres. The image was obtained at a low resolution (300 dpi) using an NICE software program and downloaded from ftp://ftp.nist.gov/pub/physics/mLclarke/NICE. For counting, preferred numbers of rows and columns (for example, 2×3 of 6-well plate) were selected to form regions of interest (ROIs), and an oval setting of the NICE program was selected and then respective ROIs were defined by moving the shapes of provided ROIs and controlling the sizes thereof. The background signal of the image was negated using a critical algorithm and the selected image was automatically counted. Regarding the mammosphere formation analysis, formation efficiency of mammospheres (MFE, %) was determined in accordance with the number of mammospheres per well/the total number of cells plated per well×100.

[3] = tested on: CD44high/CD24low cell populations of MDA-MB-231 cells; assay: Flow cytometric analysis of CD44 and CD24 expression; settings: MDA-MB-231, PAA 0.1 mM
Procedure: For FACS analysis, 50,000 cells were obtained. Gating was based on control antibody;
Expression of CD44 and CD24 in MDA-MB-231 cells was measured by FACS analysis. The cells were isolated and harvested using 1× trypsin/EDTA, and a million of cells were suspended, labelled with FITC-conjugated anti-human CD44 and PE-conjugated anti-human CD24 antibodies (BD Pharmingen, San Diego, Calif., USA) and cultured at 4° C. for 30 minutes. Then, the cells were washed with 1×PBS three times and analyzed by flow cytometry (Accuri C6, BD, San Diego, Calif., USA).

[4] = tested on: MDA-MB-231 cell-derived mammospheres; assay: Mammosphere formation, MDA-MB-231-derived; settings: PAA 0.05 and 0.1 mM, 7 days
Procedure: The mammospheres were cultured together with PAA (0.05 and 0.1 mM) or DMSO. MCF-7 and MDA-MBB-231 cells were treated with PAA and DMSO during the culture period of 7 days.
Human breast cancer cells, i.e., MCF-7 and MDA-MB-231, were commercially obtained from American Type Culture Collection (ATCC; Manassas, Va., USA). MCF-7 and MDA-MB-231 cells were cultured in Dulbecco's modified essential medium (DMEM; Hyclone, Logan, Utah, USA) containing 10% fetal bovine serum (FBS; Hyclone), 100 U/mL of penicillin, and 100 μg/mL of streptomycin (Hyclone). The MCF-7 and MDA-MB-231 cells were maintained at 37° C. in a 5% CO2-containing humidified incubator. The cells were plated at a density of 1×10^6 on a 10 cm petri dish. […]
At 7 days of culture, the cell culture plate was disposed on a scanner (Epson Perfection V700 PHOTO, Epson Korea, Co, Seoul, Korea) to obtain an 8 bit gray scale image of mammospheres. […] The background signal of the image was negated using a critical algorithm and the selected image was automatically counted. Regarding the mammosphere formation analysis, formation efficiency of mammospheres (MFE, %) was determined in accordance with the number of mammospheres per well/the total number of cells plated per well×100.

O=CCc1ccccc1 [PAA, phenylacetaldehyde]
proportion of ALDH-positive breast cancer cells [1]: 0.1% | production level of secreted IL-6 (secreted IL-6): reduced | formation of colonies (MDA-MB-231 cells): concentration-dependently inhibited | ROS activity (ROSs in MDA-MB-231 cells): induced | size of mammospheres ([2]; MCF-7-derived, 7 days): reduced | formation of primary mammospheres derived from MCF-7 cells ([2]; volatile materials exposed to MCF-7 (FIG. 5B)): potently inhibited | subpopulation expressing CD44high/CD24low in breast cancer cells [3]: reduced | number of primary mammospheres derived from MDA-MB-231 cells [4]: reduced
